Data published in patent US12077503B2, “Substituted cyclic amides and their use as herbicides” (FMC CORPORATION, priority 2015, dated 2024).

Columns and labels:
Format in all cases: in vivo
rice (Oryra sativa) = assay: Test B flooded paddy test; conditions: Oryza sativa, 360 h, Flood, 250 g ai/ha; visually evaluated after 13 to 15 d; read-out: Plant response rating, Rice (0 to 100 scale where 0 is no effect and 100 is complete control)
Method in brief: (§1)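 Visual ratings (0 none to 100 complete control) are relative to untreated plants, taken 13–15 d after treatment in a greenhouse. Test material went straight into floodwater standing 3 cm above the soil, kept constant, on plants at the 2-leaf stage.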

[1] = system: barnyardgrass (Echinochloa crus-galli); assay: Test B flooded paddy test; conditions: Echinochloa crus-galli, 360 h, Flood, 250 g ai/ha; visually evaluated after 13 to 15 d; read-out: Plant response rating, Barnyardgrass (0 to 100 scale where 0 is no effect and 100 is complete control)
Method in brief: as §1

[2] = system: ducksalad (Heteranthera limosa); assay: Test B flooded paddy test; conditions: Heteranthera limosa, 360 h, Flood, 250 g ai/ha; visually evaluated after 13 to 15 d; read-out: Plant response rating, Ducksalad (0 to 100 scale where 0 is no effect and 100 is complete control)
Method in brief: as §1

[3] = system: sedge, umbrella (small-flower umbrella sedge, Cyperus difformis); assay: Test B flooded paddy test; conditions: Cyperus difformis, 360 h, Flood, 250 g ai/ha; visually evaluated after 13 to 15 d; read-out: Plant response rating, Sedge, Umbrella (0 to 100 scale where 0 is no effect and 100 is complete control)
Method in brief: as §1

[4] = system: ryegrass, Italian (Italian ryegrass, Lolium multiflorum); assay: Test A preemergence; conditions: Lolium multiflorum, pre-emergence, 240 h, Preemergence; for pest or weed control at 31 g/ha: 31 g ai/ha, 0 to 100 scale where 0 is no effect and 100 is complete control, read-out: Ryegrass, Italian plant response rating; for pest or weed control at 125 g/ha: 125 g ai/ha, 0 to 100 scale (0 no effect, 100 complete control), read-out: Plant response rating, Ryegrass, Italian
Method in brief: (§2)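 Each rating is a visual injury score from 0 to 100 given about 10 d after treatment, judged against untreated controls kept alongside in the greenhouse. In loam soil–sand blend, seeds got a preemergence directed soil spray, while postemergence plants were 2 to 10 cm tall at spraying.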

[5] = system: giant foxtail (Setaria faberii); assay: Test A preemergence; conditions: Setaria faberi, pre-emergence, 240 h, Preemergence; for pest or weed control at 31 g/ha: 31 g ai/ha, 0 to 100 scale where 0 is no effect and 100 is complete control, read-out: Foxtail, Giant plant response rating; for pest or weed control at 125 g/ha: 125 g ai/ha, 0 to 100 scale (0 no effect, 100 complete control), read-out: Plant response rating, Foxtail, Giant
Method in brief: as §2

[6] = system: barnyardgrass (Echinochloa crus-galli); assay: Test A preemergence; conditions: Echinochloa crus-galli, pre-emergence, 240 h, Preemergence; for pest or weed control at 31 g/ha: 31 g ai/ha, 0 to 100 scale where 0 is no effect and 100 is complete control, read-out: Barnyardgrass plant response rating; for pest or weed control at 125 g/ha: 125 g ai/ha, 0 to 100 scale (0 no effect, 100 complete control), read-out: Plant response rating, Barnyardgrass
Method in brief: as §2

[7] = system: pigweed (Amaranthus retroflexus); assay: Test A preemergence; conditions: Amaranthus retroflexus, pre-emergence, 240 h, Preemergence; for pest or weed control at 31 g/ha: 31 g ai/ha, 0 to 100 scale where 0 is no effect and 100 is complete control, read-out: Pigweed plant response rating; for pest or weed control at 125 g/ha: 125 g ai/ha, 0 to 100 scale (0 no effect, 100 complete control), read-out: Plant response rating, Pigweed
Kochia (Kochia scoparia) [8] = assay: Test A preemergence; conditions: Bassia scoparia, pre-emergence, 240 h, Preemergence; for pest or weed control at 31 g/ha: 31 g ai/ha, 0 to 100 scale where 0 is no effect and 100 is complete control, read-out: Kochia plant response rating; for pest or weed control at 125 g/ha: 125 g ai/ha, 0 to 100 scale (0 no effect, 100 complete control), read-out: Plant response rating, Kochia
Method in brief: as §2

[9] = system: ragweed (common ragweed, Ambrosia elatior); assay: Test A preemergence; conditions: Ambrosia artemisiifolia, pre-emergence, 240 h, Preemergence; for pest or weed control at 31 g/ha: 31 g ai/ha, 0 to 100 scale where 0 is no effect and 100 is complete control, read-out: Ragweed plant response rating; for pest or weed control at 125 g/ha: 125 g ai/ha, 0 to 100 scale (0 no effect, 100 complete control), read-out: Plant response rating, Ragweed
Method in brief: as §2

[10] = system: Galium (catchweed bedstraw, Galium aparine); assay: Test A postemergence; conditions: Galium, post-emergence, 240 h, Postemergence; for pest or weed control at 31 g/ha: 31 g ai/ha, 0 is no effect, 100 is complete control, read-out: Galium plant response rating (0 to 100 scale); for pest or weed control at 125 g/ha: 125 g ai/ha, visual injury after approx. 10 d, 0 to 100 scale, 0 no effect, 100 complete control, read-out: Plant response rating, Galium
Method in brief: as §2

corn (Zea mays) = assay: Test A postemergence; conditions: Zea mays, post-emergence, 240 h, Postemergence; for plant injury at 31 g/ha: 31 g ai/ha, 0 is no effect, 100 is complete control, read-out: Corn plant response rating (0 to 100 scale); for Corn plant response rating (crop injury, 0 = no effect, 100 = complete kill) at 125 g/ha: 125 g ai/ha, visual injury after approx. 10 d, 0 to 100 scale, 100 complete control
Method in brief: as §2

[11] = system: ryegrass, Italian (Italian ryegrass, Lolium multiflorum); assay: Test A postemergence; conditions: Lolium multiflorum, post-emergence, 240 h, Postemergence; for pest or weed control at 31 g/ha: 31 g ai/ha, 0 is no effect, 100 is complete control, read-out: Ryegrass, Italian plant response rating (0 to 100 scale); for pest or weed control at 125 g/ha: 125 g ai/ha, visual injury after approx. 10 d, 0 to 100 scale, 0 no effect, 100 complete control, read-out: Plant response rating, Ryegrass, Italian
Method in brief: as §2

[12] = system: giant foxtail (Setaria faberii); assay: Test A postemergence; conditions: Setaria faberi, post-emergence, 240 h, Postemergence; for pest or weed control at 31 g/ha: 31 g ai/ha, 0 is no effect, 100 is complete control, read-out: Foxtail, Giant plant response rating (0 to 100 scale); for pest or weed control at 125 g/ha: 125 g ai/ha, visual injury after approx. 10 d, 0 to 100 scale, 0 no effect, 100 complete control, read-out: Plant response rating, Foxtail, Giant
Method in brief: as §2

[13] = system: barnyardgrass (Echinochloa crus-galli); assay: Test A postemergence; conditions: Echinochloa crus-galli, post-emergence, 240 h, Postemergence; for pest or weed control at 31 g/ha: 31 g ai/ha, 0 is no effect, 100 is complete control, read-out: Barnyardgrass plant response rating (0 to 100 scale); for pest or weed control at 125 g/ha: 125 g ai/ha, visual injury after approx. 10 d, 0 to 100 scale, 0 no effect, 100 complete control, read-out: Plant response rating, Barnyardgrass
Method in brief: as §2

[14] = system: pigweed (Amaranthus retroflexus); assay: Test A postemergence; conditions: Amaranthus retroflexus, post-emergence, 240 h, Postemergence; for pest or weed control at 31 g/ha: 31 g ai/ha, 0 is no effect, 100 is complete control, read-out: Pigweed plant response rating (0 to 100 scale); for pest or weed control at 125 g/ha: 125 g ai/ha, visual injury after approx. 10 d, 0 to 100 scale, 0 no effect, 100 complete control, read-out: Plant response rating, Pigweed
Method in brief: as §2

[15] = system: blackgrass (Alopecurus myosuroides); assay: Test A postemergence; conditions: Alopecurus myosuroides, post-emergence, 240 h, Postemergence; for pest or weed control at 31 g/ha: 31 g ai/ha, 0 is no effect, 100 is complete control, read-out: Blackgrass plant response rating (0 to 100 scale); for pest or weed control at 125 g/ha: 125 g ai/ha, visual injury after approx. 10 d, 0 to 100 scale, 0 no effect, 100 complete control, read-out: Plant response rating, Blackgrass
Method in brief: as §2

Kochia (Kochia scoparia) [16] = assay: Test A postemergence; conditions: Bassia scoparia, post-emergence, 240 h, Postemergence; for pest or weed control at 31 g/ha: 31 g ai/ha, 0 is no effect, 100 is complete control, read-out: Kochia plant response rating (0 to 100 scale); for pest or weed control at 125 g/ha: 125 g ai/ha, visual injury after approx. 10 d, 0 to 100 scale, 0 no effect, 100 complete control, read-out: Plant response rating, Kochia
Method in brief: as §2

[17] = system: ragweed (common ragweed, Ambrosia elatior); assay: Test A postemergence; conditions: Ambrosia artemisiifolia, post-emergence, 240 h, Postemergence; for pest or weed control at 31 g/ha: 31 g ai/ha, 0 is no effect, 100 is complete control, read-out: Ragweed plant response rating (0 to 100 scale); for pest or weed control at 125 g/ha: 125 g ai/ha, visual injury after approx. 10 d, 0 to 100 scale, 0 no effect, 100 complete control, read-out: Plant response rating, Ragweed
Method in brief: as §2

[18] = system: wheat (Triticum aestivum); assay: Test A postemergence; conditions: Triticum aestivum, post-emergence, 240 h, Postemergence; for plant injury at 31 g/ha: 31 g ai/ha, 0 is no effect, 100 is complete control, read-out: Wheat plant response rating (0 to 100 scale); for plant injury at 125 g/ha: 125 g ai/ha, visual injury after approx. 10 d, 0 to 100 scale, 0 no effect, 100 complete control, read-out: Plant response rating, Wheat
Method in brief: as §2

| Compound | pest or weed control at 250 g/ha (rice (Oryra sativa)) | pest or weed control at 250 g/ha [1] | pest or weed control at 250 g/ha [2] | pest or weed control at 250 g/ha [3] | pest or weed control at 31 g/ha [4] | pest or weed control at 125 g/ha [4] | pest or weed control at 31 g/ha [5] | pest or weed control at 125 g/ha [5] | pest or weed control at 31 g/ha [6] | pest or weed control at 125 g/ha [6] | pest or weed control at 31 g/ha [7] | pest or weed control at 125 g/ha [7] | pest or weed control at 31 g/ha (Kochia (Kochia scoparia) [8]) | pest or weed control at 125 g/ha (Kochia (Kochia scoparia) [8]) | pest or weed control at 31 g/ha [9] | pest or weed control at 125 g/ha [9] | pest or weed control at 31 g/ha [10] | pest or weed control at 125 g/ha [10] | plant injury at 31 g/ha (corn (Zea mays)) | Corn plant response rating (crop injury, 0 = no effect, 100 = complete kill) at 125 g/ha (corn (Zea mays)) | also measured |
| --- | --- | --- | --- | --- | --- | --- | --- | --- | --- | --- | --- | --- | --- | --- | --- | --- | --- | --- | --- | --- | --- |
| CN1C[C@H](c2ccc(Br)cc2)[C@@H](C(=O)Nc2ccc(F)c(F)c2F)C1=O [Compound 1393] | 55% | 85% | 100% | 0% | 0% | 20% | 80% | 90% | 40% | 90% | 30% | 80% | 40% | 70% | 30% | 90% | 50% | 60% | 0% | 80% | pest or weed control at 31 g/ha [11]: 0%; pest or weed control at 125 g/ha [11]: 20%; pest or weed control at 31 g/ha [12]: 70%; pest or weed control at 125 g/ha [12]: 90%; pest or weed control at 31 g/ha [13]: 70%; pest or weed control at 125 g/ha [13]: 90%; pest or weed control at 31 g/ha [14]: 40%; pest or weed control at 125 g/ha [14]: 60%; pest or weed control at 31 g/ha [15]: 20%; pest or weed control at 125 g/ha [15]: 30%; pest or weed control at 31 g/ha (Kochia (Kochia scoparia) [16]): 30%; pest or weed control at 125 g/ha (Kochia (Kochia scoparia) [16]): 70%; pest or weed control at 31 g/ha [17]: 0%; pest or weed control at 125 g/ha [17]: 50%; plant injury at 31 g/ha [18]: 0%; plant injury at 125 g/ha [18]: 30% |
| Cc1ccc([C@H]2CN(C)C(=O)[C@@H]2C(=O)Nc2cccnc2F)cc1 [Compound 1398] | 15% | 80% | 100% | 0% | 0% | 70% | 100% | 100% | 100% | 100% | 0% | 50% | 100% | 90% | 50% | 90% | 30% | 50% | 0% | 40% | pest or weed control at 31 g/ha [11]: 0%; pest or weed control at 125 g/ha [11]: 40%; pest or weed control at 31 g/ha [12]: 90%; pest or weed control at 125 g/ha [12]: 90%; pest or weed control at 31 g/ha [13]: 90%; pest or weed control at 125 g/ha [13]: 100%; pest or weed control at 31 g/ha [14]: 0%; pest or weed control at 125 g/ha [14]: 0%; pest or weed control at 31 g/ha [15]: 20%; pest or weed control at 125 g/ha [15]: 60%; pest or weed control at 31 g/ha (Kochia (Kochia scoparia) [16]): 20%; pest or weed control at 125 g/ha (Kochia (Kochia scoparia) [16]): 60%; pest or weed control at 31 g/ha [17]: 0%; pest or weed control at 125 g/ha [17]: 30%; plant injury at 31 g/ha [18]: 0%; plant injury at 125 g/ha [18]: 60% |
